{"source": "patent US12233070B2", "about": "“Methods for treating benzodiazepine misuse/use disorder” (University of M[…] Center, priority 2020, dated 2025)", "key": {"rhesus monkeys [1]": {"system": "rhesus monkeys", "test": "Observation/sedation, focal animal behavioral scoring", "type": "in vivo, rhesus monkey", "conditions": "i.v.", "method": "For the data shown here, the behavior of each monkey (n=4 total) was scored using a focal animal approach as described previously (Duke et al. 2018, J Pharmacol Exp Ther 366: 145-57). Briefly, a trained observer blind to the drug treatments observed a specific monkey for 5 min and recorded each instance that a particular behavior occurred during 15-s intervals. Scores for each behavior were calculated as the number of 15-s bins in which the behavior occurred (e.g., a maximum score would be 20). For sedation measures, structured exposure to stimuli were included in the observation sessions (Duke et al., 2018). […] Specifically, the observer presented three stimuli: 1) walked at a normal pace towards the cage, 2) spoke the animal's name, and 3) moved the lock used to secure the door of the cage. […] If the monkey attended more slowly (i.e., >3 s following stimuli), the observer scored “moderate sedation”.\nThe assessment of sedation was initiated during the 5-min sampling period if the animal presented, at any time during that period, with its eyes closed for longer than 3 s. The result of this assessment was recorded for each remaining 15-sec interval of the 60-sec epoch unless eyes opened. Afterwards, eyes closing again initiated the assessment. If eyes remained closed, then the assessment was repeated at the beginning of the next 60-sec epoch 15-sec interval. Therefore, the maximum score for sedation during a 5-min period was 20 (four possible scores for 4×15-sec intervals per min, 5 min total; i.e., 4 possible scores×5 min=20). The order in which animals were observed and the observer performing the scoring each day was randomized. Four observers participated in the scoring throughout the duration of the study; each observer underwent a minimum of 20 hours of training and met an inter-observer reliability criterion of ≥90% agreement with all other observers.\nThe five-min sampling periods were repeated at multiple times following i.v. injection of TPA023B or vehicle (minutes post injection): 5, 10, 20, 40, 80, 160, 320. Scores were cumulated across the time periods, resulting in a maximum possible cumulative score of 140. TPA023B was compared with alprazolam, and the results have been published by Duke et al. (2018)."}, "rhesus monkeys [2]": {"system": "rhesus monkeys", "test": "Food self-administration (PR) after TPA023B pretreatment", "type": "in vivo, rhesus monkey", "conditions": "up to 0.3 mg/kg TPA023B i.v. pretreatment; 2 pellets/delivery", "text": "To evaluate the extent to which suppression of lever-pressing behavior by TPA023B represents non-specific inhibition, we also tested food self-administration under the PR schedule. For these experiments, test sessions were scheduled similar to those with midazolam dose/vehicle, except that 2 food pellets (1-g BioServ flavored food pellets) were available as reinforcers rather than midazolam dose. All other aspects of the test was the same, including response requirements and TPA023B pretreatment conditions."}, "Sprague-Dawley rats [3]": {"system": "Sprague-Dawley rats", "test": "Pulmonary ventilation, whole body plethysmography", "type": "in vivo, rat", "conditions": "over the doses tested, i.p.; N=8 rats", "method": "We first assessed the effects of TPA023B, in comparison with alprazolam, using whole body plethysmography (WBP; DSI systems). For these studies, adult male Sprague-Dawley rats (n=8) were habituated to the chambers for 30 min. The chamber was then filled with 21% oxygen, sealed, and pressure fluctuation measured for 1 min. Next, the chamber was opened and the rats were injected with alprazolam or TPA023B, i.p., and placed into the sealed chamber for a 15 min pretreatment time. The chamber was again filled with 21% oxygen, and for 1 min, fluctuating pressure amounts were recorded to obtain tidal volume (lung capacity), breaths/minute, and minute volume (lung capacity per unit time)."}, "Sprague-Dawley rats [4]": {"system": "Sprague-Dawley rats", "test": "Precipitated withdrawal/acute dependence: responding 60 min after diazepam bolus", "type": "in vivo, rat", "conditions": "all doses tested, vs ligand alone; FIGS. 11A and 11B", "method": "Acute dependence can occur after single exposures to the benzodiazepine chlordiazepoxide, but not to an α2/3GABAA selective ligand (Fischer et al. 2013, Psychopharmacology 227: 347-54). Here, the extent to which TPA023B can precipitate withdrawal in rats following a single, large bolus dose of diazepam was studied. […] Once rates of responding were stable, doses of diazepam, the non-selective benzodiazepine antagonist flumazenil, and TPA023B were administered prior to the session."}, "[5]": {"target": "α2 subunit-containing GABAA receptors (Homo sapiens, UniProt P18507+P47869)", "sequence (P47869 29-451)": "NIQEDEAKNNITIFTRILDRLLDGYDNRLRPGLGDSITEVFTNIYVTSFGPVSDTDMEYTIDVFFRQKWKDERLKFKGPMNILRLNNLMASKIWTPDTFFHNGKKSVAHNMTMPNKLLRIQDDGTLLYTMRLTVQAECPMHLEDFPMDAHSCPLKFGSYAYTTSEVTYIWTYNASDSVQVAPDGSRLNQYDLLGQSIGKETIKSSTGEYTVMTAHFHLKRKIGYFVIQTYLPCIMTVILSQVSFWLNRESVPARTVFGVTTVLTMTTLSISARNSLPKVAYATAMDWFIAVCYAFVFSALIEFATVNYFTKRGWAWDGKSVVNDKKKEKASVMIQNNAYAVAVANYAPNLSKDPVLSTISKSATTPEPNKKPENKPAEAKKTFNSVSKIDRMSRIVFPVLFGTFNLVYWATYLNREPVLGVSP", "sequence (P18507 40-475)": "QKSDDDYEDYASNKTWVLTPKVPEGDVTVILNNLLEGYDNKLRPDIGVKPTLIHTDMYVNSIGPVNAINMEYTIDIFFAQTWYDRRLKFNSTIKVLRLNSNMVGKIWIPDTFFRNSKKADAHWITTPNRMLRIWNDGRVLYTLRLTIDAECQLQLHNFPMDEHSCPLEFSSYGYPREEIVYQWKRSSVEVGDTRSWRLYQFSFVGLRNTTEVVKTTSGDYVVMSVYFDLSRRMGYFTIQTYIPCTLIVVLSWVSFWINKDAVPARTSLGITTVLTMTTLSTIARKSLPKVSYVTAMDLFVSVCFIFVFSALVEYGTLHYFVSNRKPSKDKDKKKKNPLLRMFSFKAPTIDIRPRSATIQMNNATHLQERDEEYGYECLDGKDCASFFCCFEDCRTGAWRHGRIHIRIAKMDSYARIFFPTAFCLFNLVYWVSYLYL", "sequence (P28472 26-473 partner)": "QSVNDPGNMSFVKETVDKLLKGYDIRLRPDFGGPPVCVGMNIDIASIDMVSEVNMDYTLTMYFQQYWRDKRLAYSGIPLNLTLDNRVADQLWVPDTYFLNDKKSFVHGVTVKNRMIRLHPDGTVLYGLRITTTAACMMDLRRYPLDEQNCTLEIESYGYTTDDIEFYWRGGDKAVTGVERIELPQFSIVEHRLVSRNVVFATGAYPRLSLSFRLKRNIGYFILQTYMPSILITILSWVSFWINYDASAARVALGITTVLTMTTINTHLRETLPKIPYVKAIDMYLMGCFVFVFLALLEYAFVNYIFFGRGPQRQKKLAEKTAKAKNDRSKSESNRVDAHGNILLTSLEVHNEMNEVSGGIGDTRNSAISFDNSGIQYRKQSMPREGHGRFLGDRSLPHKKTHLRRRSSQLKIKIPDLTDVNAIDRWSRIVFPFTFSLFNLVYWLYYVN", "design": "key: act as partial positive modulators for particular subtype combinations; none: zero efficacy (i.e., antagonism) at other subtypes", "conditions": "cited from earlier work"}, "[6]": {"target": "α3 subunit-containing GABAA receptors (Homo sapiens, UniProt P18507+P34903)", "sequence (P34903 29-492)": "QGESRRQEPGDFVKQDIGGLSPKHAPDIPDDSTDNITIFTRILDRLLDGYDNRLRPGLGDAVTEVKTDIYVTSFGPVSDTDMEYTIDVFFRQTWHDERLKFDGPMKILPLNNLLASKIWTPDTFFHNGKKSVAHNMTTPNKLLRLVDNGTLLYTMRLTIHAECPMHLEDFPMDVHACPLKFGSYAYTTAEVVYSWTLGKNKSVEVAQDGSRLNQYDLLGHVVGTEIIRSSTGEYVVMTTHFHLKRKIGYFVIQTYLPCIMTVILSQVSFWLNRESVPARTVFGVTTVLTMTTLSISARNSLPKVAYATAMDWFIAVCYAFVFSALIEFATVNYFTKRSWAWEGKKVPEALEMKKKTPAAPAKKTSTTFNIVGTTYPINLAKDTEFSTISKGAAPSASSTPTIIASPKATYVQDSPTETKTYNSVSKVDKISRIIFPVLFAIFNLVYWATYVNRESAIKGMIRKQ", "sequence (P18507 40-475)": "as the sequence (P18507 40-475) above", "sequence (P28472 26-473 partner)": "as the sequence (P28472 26-473 partner) above", "design": "key: act as partial positive modulators for particular subtype combinations; none: zero efficacy (i.e., antagonism) at other subtypes", "conditions": "cited from earlier work"}, "[7]": {"target": "α5 subunit-containing GABAA receptors (Homo sapiens, UniProt P18507+P31644)", "sequence (P31644 32-462)": "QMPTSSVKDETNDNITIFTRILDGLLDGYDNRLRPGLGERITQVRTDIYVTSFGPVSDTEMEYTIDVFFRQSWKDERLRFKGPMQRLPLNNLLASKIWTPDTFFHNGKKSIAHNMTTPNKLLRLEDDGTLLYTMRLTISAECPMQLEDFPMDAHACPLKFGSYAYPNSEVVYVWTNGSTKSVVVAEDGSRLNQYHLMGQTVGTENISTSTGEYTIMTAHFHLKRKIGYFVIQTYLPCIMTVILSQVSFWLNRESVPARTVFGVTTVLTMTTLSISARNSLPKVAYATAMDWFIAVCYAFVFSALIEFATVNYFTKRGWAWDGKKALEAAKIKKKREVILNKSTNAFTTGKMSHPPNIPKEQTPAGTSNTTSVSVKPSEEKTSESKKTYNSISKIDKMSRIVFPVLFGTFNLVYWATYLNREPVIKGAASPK", "sequence (P18507 40-475)": "as the sequence (P18507 40-475) above", "sequence (P28472 26-473 partner)": "as the sequence (P28472 26-473 partner) above", "design": "key to Subtype α5: act as partial positive modulators for particular subtype combinations; none: zero efficacy (i.e., antagonism) at other subtypes", "conditions": "cited from earlier work"}, "[8]": {"system": "CNS benzodiazepine binding sites", "conditions": "rodents and primates; cited from earlier work"}, "[9]": {"system": "CNS benzodiazepine binding sites", "conditions": "1.5 mg/70 kg oral, PET; cited from earlier work"}, "men": {"system": "men", "conditions": "cited from earlier work"}, "rodent, squirrel monkey [10]": {"system": "rodent, squirrel monkey", "conditions": "rodent rotarod and chain-pulling, squirrel monkey lever pressing; cited from earlier work"}, "rodent, squirrel monkey [11]": {"system": "rodent, squirrel monkey", "conditions": "rodent and squirrel monkey models; cited from earlier work"}, "[12]": {"conditions": "at least one dose significantly different from vehicle, out of 22 behaviors, N = 4 monkeys"}}, "note": "“Also recorded” adds a separate entry of the source. Like-named read-outs stand apart in the source and are kept apart here."}
{"smiles": "CC(C)(O)c1cnn2c(-c3ccc(F)c(-c4c(F)cccc4C#N)c3)cnc2n1", "note": "[TPA023B]", "values": [{"measurement": "highest tolerated dose relative to lowest dose inducing rest/sleep posture", "setting": "rhesus monkeys [1]; 1.0 mg/kg", "result": 30, "unit": "fold"}, {"measurement": "Significant behavioral effects: Decrease", "setting": "rhesus monkeys [1]; [12]", "result": "Tactile/Oral Exploration"}, {"measurement": "Significant behavioral effects: Increase", "setting": "rhesus monkeys [1]; [12]", "result": "Rest/Sleep Posture"}, {"measurement": "tolerability", "setting": "rhesus monkeys [1]; up to doses of 1.0 mg/kg", "result": "well-tolerated"}, {"measurement": "effect on food-maintained responding", "setting": "rhesus monkeys [2]", "result": "did not alter"}, {"measurement": "any ventilatory parameter (breathing frequency, tidal volume, minute volume)", "setting": "Sprague-Dawley rats [3]", "result": "did not alter; also recorded: no effects"}, {"measurement": "rates of responding 60 min after 3.0 mg/kg diazepam (precipitated withdrawal)", "setting": "Sprague-Dawley rats [4]", "result": "did not alter rates of responding"}, {"measurement": "Subtype α2", "setting": "[5]", "result": "partial"}, {"measurement": "Subtype α3", "setting": "[6]", "result": "partial"}, {"measurement": "Subtype α5", "setting": "[7]", "result": "partial"}, {"measurement": "occupancy of CNS benzodiazepine binding sites at minimally-effective doses in anxiolysis assays", "setting": "[8]", "result": "61-88%"}, {"measurement": "occupancy of CNS benzodiazepine binding sites", "setting": "[9]", "result": "50-55%"}, {"measurement": "ataxia", "setting": "men; any dose, up to 3.0 mg/70 kg", "result": "No ataxia"}, {"measurement": "adverse effects", "setting": "men; oral, 1.5 mg/70 kg, men", "result": "no adverse effects"}, {"measurement": "adverse effects", "setting": "men; oral, 3.0 mg/70 kg, men", "result": "fatigue and drowsiness in some subjects"}, {"measurement": "subjects with fatigue and drowsiness", "setting": "men; oral, 3.0 mg/70 kg, men", "result": "1-4 subjects out of 8 total"}, {"measurement": "sedation", "setting": "rodent, squirrel monkey [10]", "result": "minimally sedating"}, {"measurement": "anxiolytic-like effects", "setting": "rodent, squirrel monkey [11]", "result": "anxiolytic-like effects"}]}
